pKi: −log10 of the molar value.
Molecular target: BACE (Homo sapiens, UniProt P56817)
Assay: Ki Determination for the Inhibition of BACE (FS-1 peptide fluorescence cleavage assay)
Assay type: biochemical
Details: apparent Ki; 50 nM BACE, 10 μM FS-1 substrate, 0.1M sodium acetate pH 4.5
Experimental: Compounds were tested against BACE activity using the following modifications of the method described in J. Ermolieff et al. (2000) Biochemistry 39(51):16263.
All compound evaluations were performed in 0.1M sodium acetate (buffer), pH, 4.5, 10 μM substrate (FS-1 peptide as described in the reference above; this is commercially available), varying concentrations of the test compound or control (DMSO to yeild 2% vol/vol), and 50 nM BACE. The assay volume is 100 μL.
Two microliters of the test compound dissolved in DMSO are added to each well in a 96-well microtiter plate. Seventy eight microliters of BACE are mixed with buffer and added to each well then incubated at room temperature for 15 minutes. A stock solution of 50 μM FS-1 substrate was prepared by addition of an aliquot of FS-1 substrate which was dissolved in DMSO to the buffer and mixed well. The reaction is initiated by addition of 20 μL of the FS-1 mix to the remaining, preincubated assay components. The cleavage reaction of substrate to product is measured using a Molecular Devices fluorescence plate reader with the excitation and emission filter pairs of 355 nm and 495 nm, respectively. Apparent Ki values are determined by fitting the data to the integrated equation for competitive tight binding inhibition.

Sequence of BACE (P56817 46-501): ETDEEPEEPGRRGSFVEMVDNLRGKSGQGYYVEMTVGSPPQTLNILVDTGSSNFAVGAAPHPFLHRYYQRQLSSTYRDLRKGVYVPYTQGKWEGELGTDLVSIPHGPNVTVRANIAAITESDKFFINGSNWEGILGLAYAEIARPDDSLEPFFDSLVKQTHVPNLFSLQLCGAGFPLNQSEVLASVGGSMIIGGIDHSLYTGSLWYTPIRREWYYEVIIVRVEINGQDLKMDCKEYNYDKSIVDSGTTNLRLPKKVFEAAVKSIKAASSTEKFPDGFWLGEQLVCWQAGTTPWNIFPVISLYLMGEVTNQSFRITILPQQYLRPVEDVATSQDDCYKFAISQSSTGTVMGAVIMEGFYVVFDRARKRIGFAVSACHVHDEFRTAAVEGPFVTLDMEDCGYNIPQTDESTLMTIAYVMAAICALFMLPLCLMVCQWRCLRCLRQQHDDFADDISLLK

Structure (SMILES)	pKi
FC(F)(F)c1ccc(N2CCNCC2)c(NCc2ccc3ccccc3c2)c1 [Compound 100, Naphthalen-2-ylmethyl-(2-piperazin-1-yl-5-trifluoromethyl-phenyl)-amine]	4.52 to 5.52
O=C(Nc1cc(C(F)(F)F)ccc1N1CCNCC1)c1ccc(F)c2ccccc12 [Compound 101, 4-Fluoro-naphthalene-1-carboxylic acid (2-piperazin-1-yl-5-trifluoromethyl-phenyl)-amide]	< 4.52
O=C(Nc1cc(C(F)(F)F)ccc1N1CCNCC1)c1nccc2ccccc12 [Compound 102, Isoquinoline-1-carboxylic acid (2-piperazin-1-yl-5-trifluoromethyl-phenyl)-amide]	4.52 to 5.52
O=C(Nc1cc(-c2ccc(F)cc2)ccc1N1CCNCC1)c1cccc2ccccc12 [Compound 103, Naphthalene-1-carboxylic acid (4′-fluoro-4-piperazin-1-yl-biphenyl-3-yl)-amide]	4.52 to 5.52
O=C(Nc1cc(-c2ccc(F)c(Cl)c2)ccc1N1CCNCC1)c1cccc2ccccc12 [Compound 104, Naphthalene-1-carboxylic acid (3′-chloro-4′-fluoro-4-piperazin-1-yl-biphenyl-3-yl)-amide]	> 5.52
O=Cc1cc(-c2ccc(N3CCNCC3)c(NC(=O)c3cccc4ccccc34)c2)ccc1F [Compound 105, Naphthalene-1-carboxylic acid (4′-fluoro-3′-formyl-4-piperazin-1-yl-biphenyl-3-yl)-amide]	4.52 to 5.52
O=C(Nc1cc(-c2cccc(Cl)c2Cl)ccc1N1CCNCC1)c1cccc2ccccc12 [Compound 106, Naphthalene-1-carboxylic acid (2′,3′-dichloro-4-piperazin-1-yl-biphenyl-3-yl)-amide]	> 5.52
O=C(Nc1cc(-c2ccc(Cl)cc2Cl)ccc1N1CCNCC1)c1cccc2ccccc12 [Compound 107, Naphthalene-1-carboxylic acid (2′,4′-dichloro-4-piperazin-1-yl-biphenyl-3-yl)-amide]	> 5.52
O=C(Nc1cc(-c2cc(Cl)ccc2Cl)ccc1N1CCNCC1)c1cccc2ccccc12 [Compound 108, Naphthalene-1-carboxylic acid (2′,5′-dichloro-4-piperazin-1-yl-biphenyl-3-yl)-amide]	> 5.52
O=C(Nc1cc(-c2cc(Cl)cc(Cl)c2Cl)ccc1N1CCNCC1)c1cccc2ccccc12 [Compound 109, Naphthalene-1-carboxylic acid (2′,3′,5′-trichloro-4-piperazin-1-yl-biphenyl-3-yl)-amide]	> 5.52
O=C(Nc1cc(-c2cccnc2)ccc1N1CCNCC1)c1cccc2ccccc12 [Compound 110, Naphthalene-1-carboxylic acid (2-piperazin-1-yl-5-pyridin-3-yl-phenyl)-amide]	4.52 to 5.52
O=C(Nc1cc(-c2ccncc2)ccc1N1CCNCC1)c1cccc2ccccc12 [Compound 111, Naphthalene-1-carboxylic acid (2-piperazin-1-yl-5-pyridin-4-yl-phenyl)-amide]	4.52 to 5.52
Cc1cc(N2CCNCC2)c(NC(=O)c2cccc3ccccc23)cc1Br [Compound 112, Naphthalene-1-carboxylic acid (5-bromo-4-methyl-2-piperazin-1-yl-phenyl)-amide]	< 4.52
O=C(Nc1cc(C(F)(F)F)ccc1N1CCNCC1)c1ccc2ccccc2c1 [Compound 113, Naphthalene-2-carboxylic acid (2-piperazin-1-yl-5-trifluoromethyl-phenyl)-amide]	4.52 to 5.52
O=C(Nc1cc(C(F)(F)F)ccc1N1CCNCC1)c1cccc2ccccc12 [Compound 114, Naphthalene-1-carboxylic acid (2-piperazin-1-yl-5-trifluoromethyl-phenyl)-amide]	4.52 to 5.52
O=C(Nc1cc(C(F)(F)F)cc(NC(=O)c2ccc3ccccc3c2)c1N1CCNCC1)c1ccc2ccccc2c1 [Compound 115, 4-{2,6-Bis-[(naphthalene-2-carbonyl)-amino]-4-trifluoromethyl-phenyl}-piperazine]	4.52 to 5.52
FC(F)(F)c1ccccc1OCc1ccc(COc2ccccc2C(F)(F)F)c(N2CCNCC2)c1 [Compound 116, 1-[2,5-Bis-(2-trifluoromethyl-phenoxymethyl)-phenyl]-piperazine]	> 5.52
CC(C)(C)c1ccc(C(=O)Nc2cc(C(F)(F)F)ccc2N2CCNCC2)cc1 [Compound 117, 4-tert-Butyl-N-(2-piperazin-1-yl-5-trifluoromethyl-phenyl)-benzamide]	< 4.52
O=C(Nc1cc(Br)ccc1N1CCNCC1)c1cccc2ccccc12 [Compound 118, Naphthalene-1-carboxylic acid (5-bromo-2-piperazin-1-yl-phenyl)-amide]	< 4.52

Structure (SMILES)	pKi
COc1cccc(-c2ccc(N3CCNCC3)c(NC(=O)c3cccc4ccccc34)c2)c1 [Compound 119, Naphthalene-1-carboxylic acid (3′-methoxy-4-piperazin-1-yl-biphenyl-3-yl)-amide]	< 4.52
COc1ccc(-c2ccc(N3CCNCC3)c(NC(=O)c3cccc4ccccc34)c2)cc1 [Compound 120, Naphthalene-1-carboxylic acid (4′-methoxy-4-piperazin-1-yl-biphenyl-3-yl)-amide]	4.52 to 5.52
O=C(Nc1cc(-c2ccc(Cl)cc2)ccc1N1CCNCC1)c1cccc2ccccc12 [Compound 121, Naphthalene-1-carboxylic acid (4′-chloro-4-piperazin-1-yl-biphenyl-3-yl)-amide]	4.52 to 5.52
O=C(Nc1cc(-c2ccccc2Cl)ccc1N1CCNCC1)c1cccc2ccccc12 [Compound 122, Naphthalene-1-carboxylic acid (2′-chloro-4-piperazin-1-yl-biphenyl-3-yl)-amide]	4.52 to 5.52
O=C(Nc1cc(-c2cccc(Cl)c2)ccc1N1CCNCC1)c1cccc2ccccc12 [Compound 123, Naphthalene-1-carboxylic acid (3′-chloro-4-piperazin-1-yl-biphenyl-3-yl)-amide]	4.52 to 5.52
Cc1ccc(-c2ccc(N3CCNCC3)c(NC(=O)c3cccc4ccccc34)c2)cc1 [Compound 124, Naphthalene-1-carboxylic acid (4′-methyl-4-piperazin-1-yl-biphenyl-3-yl)-amide]	4.52 to 5.52
O=C(Nc1cc(COc2ccccc2C(F)(F)F)ccc1N1CCNCC1)c1cccc2ccccc12 [Compound 125, Naphthalene-1-carboxylic acid [2-piperazin-1-yl-5-(2-trifluoromethyl-phenoxymethyl)-phenyl]-amide]	4.52 to 5.52
Cc1cccc(-c2ccc(N3CCNCC3)c(NC(=O)c3cccc4ccccc34)c2)c1 [Compound 126, Naphthalene-1-carboxylic acid (3′-methyl-4-piperazin-1-yl-biphenyl-3-yl)-amide]	4.52 to 5.52
O=C(Nc1cc(C(F)(F)F)cc(NC(=O)c2cccc3ccccc23)c1N1CCNCC1)c1cccc2ccccc12 [Compound 127, 4-{2,6-Bis-[(naphthalene-1-carbonyl)-amino]-4-trifluoromethyl-phenyl}-piperazine]	4.52 to 5.52
O=C(Nc1cc(-c2cccc(C(F)(F)F)c2)ccc1N1CCNCC1)c1cccc2ccccc12 [Compound 128, Naphthalene-1-carboxylic acid (4-piperazin-1-yl-3′-trifluoromethyl-biphenyl-3-yl)-amide]	4.52 to 5.52
O=C(Nc1cc(-c2ccc(C(F)(F)F)cc2)ccc1N1CCNCC1)c1cccc2ccccc12 [Compound 129, Naphthalene-1-carboxylic acid (4-piperazin-1-yl-4′-trifluoromethyl-biphenyl-3-yl)-amide]	> 5.52
O=C(Nc1cc(-c2ccc(Cl)c(Cl)c2)ccc1N1CCNCC1)c1cccc2ccccc12 [Compound 130, Naphthalene-1-carboxylic acid (3′,4′-dichloro-4-piperazin-1-yl-biphenyl-3-yl)-amide]	> 5.52
N#Cc1ccc(-c2ccc(N3CCNCC3)c(NC(=O)c3cccc4ccccc34)c2)cc1 [Compound 131, Naphthalene-1-carboxylic acid (4′-cyano-4-piperazin-1-yl-biphenyl-3-yl)-amide]	4.52 to 5.52
O=C(Nc1cc(Oc2ccccc2)ccc1N1CCNCC1)c1cccc2ccccc12 [Compound 132, Naphthalene-1-carboxylic acid (5-phenoxy-2-piperazin-1-yl-phenyl)-amide]	4.52 to 5.52
O=C(Nc1cc(Oc2ccc(Cl)cc2)ccc1N1CCNCC1)c1cccc2ccccc12 [Compound 133, Naphthalene-1-carboxylic acid [5-(4-chloro-phenoxy)-2-piperazin-1-yl-phenyl]-amide]	4.52 to 5.52
O=C(Cc1cccc2ccccc12)Nc1cc(C(F)(F)F)ccc1N1CCNCC1 [Compound 134, 2-Naphthalen-1-yl-N-(2-piperazin-1-yl-5-trifluoromethyl-phenyl)-acetamide]	< 4.52
O=S(=O)(Nc1cc(C(F)(F)F)ccc1N1CCNCC1)c1cccc2ccccc12 [Compound 135, Naphthalene-1-sulfonic acid (2-piperazin-1-yl-5-trifluoromethyl-phenyl)-amide]	< 4.52
O=S(=O)(Nc1cc(C(F)(F)F)ccc1N1CCNCC1)c1ccc2ccccc2c1 [Compound 136, Naphthalene-2-sulfonic acid (2-piperazin-1-yl-5-trifluoromethyl-phenyl)-amide]	< 4.52
O=S(=O)(Nc1cc(C(F)(F)F)ccc1N1CCNCC1)c1ccc(-c2ccccc2)cc1 [Compound 137, Biphenyl-4-sulfonic acid (2-piperazin-1-yl-5-trifluoromethyl-phenyl)-amide]	4.52 to 5.52

Reference: US20030095958A1, “Inhibitors of bace” (priority 2001, published 2003)
